Test results reported in ChEMBL document CHEMBL1933046, “Synthesis and antibacterial activity of a novel series of acylides active against community acquired respiratory pathogens” (2012).
Values after ≈ are worked out from the molar mass of the structure shown. Active and inactive are the calls of the source. No cut-off for these calls is given here.

Legend:
[1] = tested on: Streptococcus pneumoniae; assay: Antibacterial activity against Streptococcus pneumoniae 49619 by NCCLS method; type: functional
[2] = tested on: Streptococcus pyogenes; assay: Antibacterial activity against Streptococcus pyogenes 19615 by NCCLS method; type: functional
[3] = tested on: Haemophilus influenzae; assay: Antibacterial activity against Haemophilus influenzae 38 by NCCLS method; type: functional
[4] = tested on: Streptococcus pneumoniae; assay: Antibacterial activity against Streptococcus pneumoniae 994 expressing mef gene by NCCLS method; type: functional
[5] = tested on: Streptococcus pneumoniae; assay: Antibacterial activity against Streptococcus pneumoniae 3579 expressing erm gene by NCCLS method; type: functional
[6] = tested on: Moraxella catarrhalis; assay: Antibacterial activity against Moraxella catarrhalis 8176 by NCCLS method; type: functional
[7] = tested on: Streptococcus pneumoniae; assay: Antibacterial activity against Streptococcus pneumoniae 6303 by NCCLS method; type: functional
[8] = tested on: Streptococcus pneumoniae; assay: Antibacterial activity against Streptococcus pneumoniae by NCCLS method; type: functional
[9] = tested on: Streptococcus pneumoniae; assay: Antibacterial activity against telethromycin-resistant Streptococcus pneumoniae 3489 expressing erm gene by NCCLS method; type: functional
[10] = tested on: Streptococcus pneumoniae; assay: Antibacterial activity against telethromycin-resistant Streptococcus pneumoniae 162 expressing erm gene by NCCLS method; type: functional
[11] = tested on: Streptococcus pneumoniae; assay: Antibacterial activity against telethromycin-resistant Streptococcus pneumoniae 3390 expressing erm gene by NCCLS method; type: functional
[12] = tested on: Streptococcus pneumoniae; assay: Antibacterial activity against telethromycin-resistant Streptococcus pneumoniae 5051 expressing erm gene by NCCLS method; type: functional
[13] = tested on: Streptococcus pneumoniae; assay: Antibacterial activity against telethromycin-resistant Streptococcus pneumoniae 2840 expressing erm gene by NCCLS method; type: functional
[14] = tested on: Streptococcus pneumoniae; assay: Antibacterial activity against telethromycin-resistant Streptococcus pneumoniae 217 expressing erm gene by NCCLS method; type: functional
[15] = tested on: Streptococcus pneumoniae; assay: Antibacterial activity against telethromycin-resistant Streptococcus pneumoniae AB14 expressing erm gene by NCCLS method; type: functional
[16] = tested on: Streptococcus pneumoniae; assay: Antibacterial activity against Streptococcus pneumoniae 3579 expressing erm gene infected in mouse systemic infection model; type: functional, organism-based
[17] = tested on: Streptococcus pneumoniae; assay: Antibacterial activity against telethromycin-resistant Streptococcus pneumoniae 3488 expressing erm gene by NCCLS method; type: functional
[18] = tested on: Streptococcus pneumoniae; assay: Antibacterial activity against telethromycin-resistant Streptococcus pneumoniae 5099 expressing erm gene by NCCLS method; type: functional
[19] = tested on: Streptococcus pneumoniae; assay: Antibacterial activity against telethromycin-resistant Streptococcus pneumoniae 757 expressing erm gene by NCCLS method; type: functional
[20] = tested on: Streptococcus pneumoniae; assay: Antibacterial activity against telethromycin-resistant Streptococcus pneumoniae 3271 expressing erm gene by NCCLS method; type: functional
[21] = tested on: Streptococcus pneumoniae; assay: Antibacterial activity against telethromycin-resistant Streptococcus pneumoniae B739 expressing erm gene by NCCLS method; type: functional

| SMILES | MIC [1] [µg/mL] | MIC [2] [µg/mL] | MIC [3] [µg/mL] | MIC [4] [µg/mL] | MIC [5] [µg/mL] | MIC [6] [µg/mL] | MIC [7] [µg/mL] | MIC [9] [µg/mL] | MIC [10] [µg/mL] | MIC [11] [µg/mL] | MIC [12] [µg/mL] | MIC [13] [µg/mL] | MIC [14] [µg/mL] | MIC [15] [µg/mL] | Activity [16] | MIC [17] [µg/mL] | MIC [18] [µg/mL] | MIC [19] [µg/mL] | MIC [20] [µg/mL] | MIC [21] [µg/mL] | further results |
| --- | --- | --- | --- | --- | --- | --- | --- | --- | --- | --- | --- | --- | --- | --- | --- | --- | --- | --- | --- | --- | --- |
| CC[C@H]1OC(=O)[C@H](C)[C@@H](O[C@H]2C[C@@](C)(OC)[C@@H](O)[C@H](C)O2)[C@H](C)[C@@H](O[C@@H]2O[C@H](C)C[C@H](N(C)C)[C@H]2O)[C@](C)(OC)C[C@@H](C)C(=O)[C@H](C)[C@@H](O)[C@]1(C)O [CLARITHROMYCIN] | 0.125 (≈ 0.167 µM) | 0.125 (≈ 0.167 µM) | > 16 | 0.5 (≈ 0.668 µM) | 4 (≈ 5.35 µM) | 4 (≈ 5.35 µM) | 0.25 (≈ 0.334 µM) | – | – | – | – | – | – | – | – | – | – | – | – | – | MIC [8]: 0.25 µg/mL (≈ 0.334 µM) |
| C=CCN(C)[C@H]1C[C@@H](C)O[C@@H](O[C@@H]2[C@@H](C)[C@H](OC(=O)Cc3cccnc3)[C@@H](C)C(=O)O[C@H](CC)[C@@]3(C)OC(=O)N(CCCCn4cnc5ncccc54)[C@@H]3[C@@H](C)C(=O)[C@H](C)C[C@@]2(C)OC)[C@@H]1O | 0.03 (≈ 0.0321 µM) | 0.06 (≈ 0.0643 µM) | 0.125 (≈ 0.134 µM) | 0.06 (≈ 0.0643 µM) | 1 (≈ 1.07 µM) | 0.06 (≈ 0.0643 µM) | 0.06 (≈ 0.0643 µM) | 0.5 (≈ 0.536 µM) | 1 (≈ 1.07 µM) | 0.25 (≈ 0.268 µM) | 0.25 (≈ 0.268 µM) | 0.5 (≈ 0.536 µM) | 0.5 (≈ 0.536 µM) | 0.125 (≈ 0.134 µM) | Active | 0.25 (≈ 0.268 µM) | 0.125 (≈ 0.134 µM) | 0.5 (≈ 0.536 µM) | 1 (≈ 1.07 µM) | 0.5 (≈ 0.536 µM) | – |
| C=CCN(C)[C@H]1C[C@@H](C)O[C@@H](O[C@@H]2[C@@H](C)[C@H](OC(=O)Cc3ccccn3)[C@@H](C)C(=O)O[C@H](CC)[C@@]3(C)OC(=O)N(CCCCn4ccc5cccnc54)[C@@H]3[C@@H](C)C(=O)[C@H](C)C[C@@]2(C)OC)[C@@H]1O | 0.03 (≈ 0.0322 µM) | 0.03 (≈ 0.0322 µM) | < 0.06 | 0.25 (≈ 0.268 µM) | 1 (≈ 1.07 µM) | 0.25 (≈ 0.268 µM) | 0.03 (≈ 0.0322 µM) | 2 (≈ 2.15 µM) | 4 (≈ 4.29 µM) | 0.25 (≈ 0.268 µM) | 0.5 (≈ 0.536 µM) | 2 (≈ 2.15 µM) | 1 (≈ 1.07 µM) | 0.25 (≈ 0.268 µM) | Active | 0.5 (≈ 0.536 µM) | 0.25 (≈ 0.268 µM) | 1 (≈ 1.07 µM) | 4 (≈ 4.29 µM) | 2 (≈ 2.15 µM) | – |
| CC[C@H]1OC(=O)[C@H](C)[C@@H](O[C@H]2C[C@@](C)(OC)[C@@H](O)[C@H](C)O2)[C@H](C)[C@@H](O[C@@H]2O[C@H](C)C[C@H](N(C)C)[C@H]2O)[C@](C)(O)C[C@@H](C)C(=O)[C@H](C)[C@@H](O)[C@]1(C)O [ERYTHROMYCIN] | 0.125 (≈ 0.17 µM) | 0.015 (≈ 0.0204 µM) | > 16 | 0.5 (≈ 0.681 µM) | 8 (≈ 10.9 µM) | 8 (≈ 10.9 µM) | 0.25 (≈ 0.341 µM) | – | – | – | – | – | – | – | – | – | – | – | – | – | MIC [8]: 0.25 µg/mL (≈ 0.341 µM) |
| C=CCN(C)[C@H]1C[C@@H](C)O[C@@H](O[C@@H]2[C@@H](C)[C@H](OC(=O)Cc3ccccn3)[C@@H](C)C(=O)O[C@H](CC)[C@@]3(C)OC(=O)N(CCCCn4cncc4-c4ccco4)[C@@H]3[C@@H](C)C(=O)[C@H](C)C[C@@]2(C)OC)[C@@H]1O | 0.015 (≈ 0.0158 µM) | 0.015 (≈ 0.0158 µM) | – | 0.06 (≈ 0.0633 µM) | 0.25 (≈ 0.264 µM) | 0.125 (≈ 0.132 µM) | 0.008 (≈ 0.00844 µM) | 1 (≈ 1.05 µM) | 2 (≈ 2.11 µM) | 0.25 (≈ 0.264 µM) | 0.25 (≈ 0.264 µM) | 1 (≈ 1.05 µM) | 0.5 (≈ 0.527 µM) | 0.125 (≈ 0.132 µM) | Active | 0.25 (≈ 0.264 µM) | 0.125 (≈ 0.132 µM) | 0.5 (≈ 0.527 µM) | 1 (≈ 1.05 µM) | 1 (≈ 1.05 µM) | – |
